According to patent US10703698B2, “Compounds which activate estrogen receptors and compositions and methods of using the same” (The Board of Trustees of the University of Illinois, priority 2016, dated 2020):
“Also recorded” adds a separate entry of the source.

Assays:
PgR gene = assay: PgR (genomic gene) mRNA expression, qPCR; conditions: MCF-7 cells; 1 μM PaPE or 10 nM E2 for 4 h where stated; versus vehicle or E2
Text: (§2) Quantitation of signal intensities is shown in panel at the right.

[1] = biological target: T1, purified full-length human ERα (Homo sapiens, UniProt P03372); assay: competitive radiometric binding assay, relative binding affinity (RBA); conditions: relative to estradiol = 100
T1 construct: using purified full-length human ERα and ERβ
T1 sequence (P03372 1-595): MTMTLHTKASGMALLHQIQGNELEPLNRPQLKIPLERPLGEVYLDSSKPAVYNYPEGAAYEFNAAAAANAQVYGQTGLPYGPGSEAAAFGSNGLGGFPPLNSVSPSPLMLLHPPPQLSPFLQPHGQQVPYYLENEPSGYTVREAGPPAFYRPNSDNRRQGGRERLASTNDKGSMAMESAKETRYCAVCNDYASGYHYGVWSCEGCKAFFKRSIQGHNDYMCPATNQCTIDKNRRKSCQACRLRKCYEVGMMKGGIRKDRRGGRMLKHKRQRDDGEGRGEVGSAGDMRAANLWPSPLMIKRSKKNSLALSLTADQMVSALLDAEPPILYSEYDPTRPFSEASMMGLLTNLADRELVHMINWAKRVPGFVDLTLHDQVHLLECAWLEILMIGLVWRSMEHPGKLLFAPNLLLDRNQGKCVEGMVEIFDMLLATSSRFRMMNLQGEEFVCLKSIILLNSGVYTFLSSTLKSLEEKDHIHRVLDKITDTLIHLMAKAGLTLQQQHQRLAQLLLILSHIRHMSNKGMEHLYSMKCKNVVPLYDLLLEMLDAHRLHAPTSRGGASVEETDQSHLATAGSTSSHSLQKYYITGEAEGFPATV
Text: (§1) FIG. 1. […] […]

[2] = biological target: T2, purified full-length human ERβ (Homo sapiens, UniProt Q92731); assay: as above; conditions: relative to estradiol = 100
T2 construct: using purified full-length human ERα and ERβ
T2 sequence (Q92731 whole entry): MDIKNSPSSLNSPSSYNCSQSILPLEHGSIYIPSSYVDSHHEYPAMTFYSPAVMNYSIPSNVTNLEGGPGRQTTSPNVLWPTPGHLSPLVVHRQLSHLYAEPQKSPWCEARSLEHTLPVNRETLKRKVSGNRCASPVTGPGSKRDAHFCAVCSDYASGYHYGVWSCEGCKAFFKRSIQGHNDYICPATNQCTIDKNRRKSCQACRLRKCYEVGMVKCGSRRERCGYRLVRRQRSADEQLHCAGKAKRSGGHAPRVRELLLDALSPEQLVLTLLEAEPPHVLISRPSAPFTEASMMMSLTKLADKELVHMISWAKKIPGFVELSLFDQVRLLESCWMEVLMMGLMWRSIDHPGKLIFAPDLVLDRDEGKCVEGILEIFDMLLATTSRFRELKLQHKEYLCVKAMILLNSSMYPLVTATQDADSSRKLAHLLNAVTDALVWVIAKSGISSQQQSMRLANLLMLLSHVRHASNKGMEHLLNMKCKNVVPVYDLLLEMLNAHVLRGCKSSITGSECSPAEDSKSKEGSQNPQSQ
Text: as §1

LRRC54 gene = assay: LRRC54 (non-genomic gene) mRNA expression, qPCR; conditions: for LRRC54 (non-genomic gene) mRNA expression, in words: MCF-7 cells, 1 μM PaPE or 10 nM E2 for 4 h where stated, versus vehicle, E2 or compound 2
Text: as §2

LRRC54 gene vs PgR gene = assay: preferential activation of non-genomic (LRRC54) over genomic (PgR) gene; conditions: relative to activation by E2
eNOS = eNOS activation in primary endothelial cells (14C-L-arginine to 14C-L-citrulline); format: cell-based, bovine; conditions: 15 min; 10 nM ligand (FIG. 9E)
MCF-7 cells = assay: oleic acid (OA)-induced MCF-7 cell proliferation, WST1; conditions: 100 nM OA, agent 1 μM, 6 days
Method: Screening of FFAs for stimulating effects on cell proliferation. […] FFA mix contains all the single free fatty acids tested in this experiment. Lipid mix (mixture of cholesterol and fatty acids) was purchased from Sigma. Six replicates were used in each assay, and the experiment was repeated twice. […] Mean±SEM is plotted.
(D) OA effect on MCF-7 cell proliferation with and without PaPE-1. Dose-response of OA on cell proliferation was tested alone or in combination with and without PaPE-1 (1 μM) for 6 days before WST1 assay. The experiment has six technical replicates and was repeated twice. A two-way analysis of variance (ANOVA) model was fitted to assess the contribution of OA dose and inhibitor (Ctrl, and PaPE-1) treatment on MCF-7 cell proliferation. When the main effects were statistically significant at α=0.05, pairwise t-tests with a Bonferroni correction were employed to identify if treatment were statistically different from each other. **** p<0.0001. Mean±SEM is plotted. […] In the above cell proliferation experiments, MCF-7 cells were treated in whole growth medium adding the designated compounds. The treatment went for 6 days and OD at 450 was measured by WST1 assay. […] The experiment is repeated twice. A two-way analysis of variance (ANOVA) model was fitted to assess the contribution of ligand (Veh or OA) and inhibitor (Ctrl, 4-OH-Tam, Fulv, RAD001 and PaPE-1) treatment on MCF-7 cell proliferation. When the main effects were statistically significant at α=0.05, pairwise t-tests with a Bonferroni correction were employed to identify if treatment were statistically different from each other. **** p<0.0001. Mean±SEM is plotted. […] The MCF-7 cells were treated with Veh, 1 μM 4-OH-tam, 1 μM Fulv, and 1 μM PaPE-1 for six days before WST-1 assay in serum from 63 obese individuals (Left) and in standard cell culture (Right).

| Compound | PgR (genomic gene) mRNA expression, in words (PgR gene) | ERα RBA (relative binding affinity) [1] | ERβ RBA (relative binding affinity) [2] | LRRC54 (non-genomic gene) mRNA expression, in words (LRRC54 gene) | preference for activation of the non-genomic pathway (LRRC54 over PgR), in words (LRRC54 gene vs PgR gene) | eNOS / NOS activity (eNOS) | OA-induced MCF-7 cell proliferation with added agent (MCF-7 cells) | LRRC54 stimulation compared to E2 (LRRC54 gene; FIG. 14) [%] |
| --- | --- | --- | --- | --- | --- | --- | --- | --- |
| Oc1ccc(-c2ccc3c(c2)CCC3O)cc1 (stereo not shown) [Compound 32] | stimulate PgR gene expression at a level close to that of E2 | 0.005 ± 0.001 | 0.190 ± 0.04 | – | – | – | – | – |
| Cc1cc(-c2ccc3c(c2)CCC3O)cc(CO)c1O (stereo not shown) [Compound 56, 5-(4-hydroxy-3-(hydroxymethyl)-5-methylphenyl)-2,3-dihydro-1H-inden-1-ol] | – | <0.001 | <0.001 | increases the expression of the non-genomic LRRC54 gene | considerable non-genomic gene selectivity | – | – | – |
| COC1CC(O)c2ccc(-c3cc(C)c(O)c(C)c3)cc21 (stereo not shown) [Compound 30] | elevated both genomic and nongenomic gene expression to a higher level than does its parent compound 29 | 0.002 ± 0.001 | 0.002 ± 0.001 | elevated both genomic and nongenomic gene expression to a higher level than does its parent compound 29 | – | – | – | – |
| O=C(c1ccc(OCCN2CCCCC2)cc1)c1c(-c2ccc(O)cc2)sc2cc(O)ccc12 [Raloxifene, reference compound] | blocks expression of both the non-genomic LRRC54 and genomic PgR genes | – | – | blocks expression of both the non-genomic LRRC54 and genomic PgR genes | Neither Raloxifene (RAL) nor hydroxytamoxifen (TOT) show selective activation of the non-genomic gene LRRC54 | – | – | – |
| Cc1cc(-c2ccc(C(C)O)cc2)cc(C)c1O (stereo not shown) [Compound 15, 4′-(1-hydroxyethyl)-3,5-dimethyl-[1,1′-biphenyl]-4-ol] | – | 0.002 ± 0.001 | 0.005 ± 0.003 | – | some selectivity for the non-genomic gene but less than that of compound 2 | increased NOS activity | – | – |
| Cc1cc(-c2ccc3c(c2)CCC3C#N)cc(C)c1O (stereo not shown) [Compound 9, 5-(4-hydroxy-3,5-dimethylphenyl)-2,3-dihydro-1H-indene-1-carbonitrile] | – | 0.003 ± 0.001 | 0.002 ± 0.001 | no non-genomic activity | – | – | – | – |
| Cc1cc(-c2ccc(O)c(CO)c2)cc(C)c1O [Compound 59, 3′-(hydroxymethyl)-3,5-dimethyl-[1,1′-biphenyl]-4,4′-diol] | – | – | – | expression level is less than for compound 2 | selective expression of the non-genomic LRRC54 gene compared to E2 | – | – | – |
| Cc1cc(-c2cccc(CO)c2)cc(C)c1O [Compound 24] | slight higher than the vehicle level | 0.005 ± 0.001 | 0.004 ± 0 | – | – | – | – | – |
| Oc1c(Cl)cc(-c2ccc3c(c2)CCC3O)cc1Cl (stereo not shown) [Compound 63, 5-(3,5-dichloro-4-hydroxyphenyl)-2,3-dihydro-1H-inden-1-ol] | – | 0.005 | 0.006 | two-fold less than that of compound 2 | stimulates the non-genomic gene LRRC54 selectively | – | – | – |
| OCc1cc(-c2ccc3c(c2)CCC3O)ccc1O (stereo not shown) [Compound 57, 5-(4-hydroxy-3-(hydroxymethyl)phenyl)-2,3-dihydro-1H-inden-1-ol] | – | – | – | increases the expression of the non-genomic LRRC54 gene | considerable non-genomic gene selectivity | – | – | – |
| Cc1cc(-c2ccc3c(c2)CCCC3O)cc(C)c1O (stereo not shown) [Compound 16, 6-(4-hydroxy-3,5-dimethylphenyl)-1,2,3,4-tetrahydronaphthalen-1-ol] | – | 0.002 ± 0.001 | 0.004 ± 0.003 | – | some selectivity for the non-genomic gene but less than that of compound 2 | increased NOS activity | – | – |
| CO[C@H]1C[C@@H]2CC[C@@H](C)[C@@](O)(O2)C(=O)C(=O)N2CCCC[C@H]2C(=O)O[C@H]([C@H](C)C[C@@H]2CC[C@@H](OCCO)[C@H](OC)C2)CC(=O)[C@H](C)/C=C(\C)[C@@H](O)[C@@H](OC)C(=O)[C@H](C)C[C@H](C)/C=C/C=C/C=C/1C [RAD001] | – | – | – | – | – | – | blocked OA-induced cell proliferation; also recorded: suppressed | – |
| OCc1cc(-c2cc(Cl)c(O)c(Cl)c2)ccc1O [Compound 64, 3,5-Dichloro-3′-(hydroxymethyl)-[1,1′-biphenyl]-4,4′-diol] | – | – | – | expression level is less than for compound 2 | selective expression of the non-genomic LRRC54 gene compared to E2 | – | – | – |
| Cc1cc(-c2ccc3c(c2)CCC3O)ccc1O (stereo not shown) [Compound 55, 5-(4-hydroxy-3-methylphenyl)-2,3-dihydro-1H-inden-1-ol] | stimulated two fold greater than that with E2 | 0.002 | 0.004 | – | – | – | – | – |
| CC(=O)NCCNC(=O)CCC(C)(c1ccc(O)cc1)c1ccc(O)cc1 [PaPE-4, Diphenolic acid-NHEtNHAc] | – | – | – | – | – | increased NOS activity | – | – |
| Cc1cc(C)cc(-c2ccc3c(c2)CCC3O)c1 (stereo not shown) [Compound 12, 5-(3,5-dimethylphenyl)-2,3-dihydro-1H-inden-1-ol] | strongly stimulate the genomic gene PgR | 0.001 ± 0 | 0.002 ± 0.001 | some non-genomic activity | – | – | – | – |
| Cc1cc(-c2ccc(CO)c(C(F)(F)F)c2)cc(C)c1O [Compound 27] | slight higher than the vehicle level | 0.003 ± 0.001 | 0.003 ± 0 | – | – | – | – | – |
| Cc1cc(-c2ccc(CO)c(O)c2)cc(C)c1O [Compound 60, 4-(hydroxymethyl)-3′,5′-dimethyl-[1,1′-biphenyl]-3,4′-diol] | – | <0.001 | ~0.001 | expression level is less than for compound 2 | selective expression of the non-genomic LRRC54 gene compared to E2 | – | – | – |
| Cc1cc(-c2cc(C)c(O)c(C)c2)ccc1CO [Compound 26] | slight higher than the vehicle level | <0.001 | 0.002 ± 0.001 | – | – | – | – | – |
| Cc1cc(-c2ccc3c(c2)CCC3Cl)cc(C)c1O (stereo not shown) [Compound 8, 4-(1-chloro-2,3-dihydro-1H-inden-5-yl)-2,6-dimethylphenol] | – | 0.001 ± 0 | 0.006 ± 0.001 | stimulation of the nongenomic gene (LRRC54), but to a lesser degree than compound 2 | – | – | – | 50 |
